From PubChem BioAssay AID2060511 (Molecular Pharmacology Branch, DTP, NCI, 2025)

Tested on: 422866-222-R5-J1-PDC spheroids with HUVEC/MSC, viability
Test: Anticancer human tumor 422866-222-R5-J1-PDC patient-derived pancreatic adenocarcinoma cell line growth inhibition [GQUAD]
Conditions: for IC50: curve of first compound; for viability, T/C: stronger effect = lower value
Outline: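 Multi-cell-type spheroids of tumor cells with HUVEC and mesenchymal stem cells, treated with drug combinations. Concentrations descend in half-log steps from near clinical Cmax, or from 10 microM where Cmax is unknown; viability read-out.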

[1] = second compound 0.0316 µM, first compound 0.0316 µM
[2] = second compound 0.0316 µM, first compound 0.1 µM
[3] = second compound 0.0316 µM, first compound 0.316 µM
[4] = second compound 0.0316 µM, first compound 1 µM
[5] = second compound 0.0316 µM, first compound 3.16 µM
[6] = second compound 0.0316 µM, first compound 10 µM
[7] = second compound 0.1 µM, first compound 0.0316 µM
[8] = second compound 0.1 µM, first compound 0.1 µM
[9] = second compound 0.1 µM, first compound 0.316 µM
[10] = second compound 0.1 µM, first compound 1 µM
[11] = second compound 0.1 µM, first compound 3.16 µM
[12] = second compound 0.1 µM, first compound 10 µM
[13] = second compound 0.316 µM, first compound 0.0316 µM
[14] = second compound 0.316 µM, first compound 0.1 µM
[15] = second compound 0.316 µM, first compound 0.316 µM
[16] = second compound 0.316 µM, first compound 1 µM
[17] = second compound 0.316 µM, first compound 3.16 µM
[18] = second compound 0.316 µM, first compound 10 µM
[19] = second compound 1 µM, first compound 0.0316 µM
[20] = second compound 1 µM, first compound 0.1 µM
[21] = second compound 1 µM, first compound 0.316 µM
[22] = second compound 1 µM, first compound 1 µM
[23] = second compound 1 µM, first compound 3.16 µM
[24] = second compound 1 µM, first compound 10 µM
[25] = second compound 3.16 µM, first compound 0.0316 µM
[26] = second compound 3.16 µM, first compound 0.1 µM
[27] = second compound 3.16 µM, first compound 0.316 µM
[28] = second compound 3.16 µM, first compound 1 µM
[29] = second compound 3.16 µM, first compound 3.16 µM
[30] = second compound 3.16 µM, first compound 10 µM
[31] = second compound 10 µM, first compound 0.0316 µM
[32] = second compound 10 µM, first compound 0.1 µM
[33] = second compound 10 µM, first compound 0.316 µM
[34] = second compound 10 µM, first compound 1 µM
[35] = second compound 10 µM, first compound 3.16 µM
[36] = second compound 10 µM, first compound 10 µM
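Note: spheroids exposed to compounds for seven days before reading.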
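Throughout, for viability, T/C: percent viability relative to DMSO vehicle control taken as 100%.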

Work on `CC(C)(O)C1CCC(Nc2ccc3ncc(-c4cccc(C(F)(F)F)c4)n3n2)CC1` (stereo unspecified) + Cc1cnc(CNC(=O)c2c(=O)c3ccc(N4CCCN(C)CC4)nc3n3c2sc2ccccc23)cn1 yielded an IC50 (second compound 0.0316 µM) of 1440 nM, an IC50 (second compound 0.1 µM) greater than 10000 nM and an IC50 (second compound 0.316 µM) greater than 10000 nM. For the same compound, the IC50 (second compound 1 µM) was greater than 10000 nM, the IC50 (second compound 3.16 µM) was greater than 10000 nM and the IC50 (second compound 10 µM) was 1810 nM. The viability, T/C [1] was 102%, the viability, T/C [2] was 80.6% and the viability, T/C [3] was 97.1%. The viability, T/C [4] was 51.4%, the viability, T/C [5] was 42% and the viability, T/C [6] was 51.8%. It also gave a viability, T/C [7] of 91.4%, a viability, T/C [8] of 76.3% and a viability, T/C [9] of 81.2%. It also gave a viability, T/C [10] of 66.5%, a viability, T/C [11] of 58.8% and a viability, T/C [12] of 63.7%. The viability, T/C [13] was 86.8%, the viability, T/C [14] was 83.9% and the viability, T/C [15] was 75.1%. It also gave a viability, T/C [16] of 78.6%, a viability, T/C [17] of 76.3% and a viability, T/C [18] of 75.5%. The viability, T/C [19] was 74.6%, the viability, T/C [20] was 88.7% and the viability, T/C [21] was 79.4%. The viability, T/C [22] was 75.6%, the viability, T/C [23] was 82.3% and the viability, T/C [24] was 75.4%. The viability, T/C [25] was 71.1%, the viability, T/C [26] was 101% and the viability, T/C [27] was 76%. The viability, T/C [28] was 72.8%, the viability, T/C [29] was 68.5% and the viability, T/C [30] was 54.1%. It also gave a viability, T/C [31] of 83%, a viability, T/C [32] of 67.8% and a viability, T/C [33] of 83.2%. The viability, T/C [34] was 75.5%, the viability, T/C [35] was 25.9% and the viability, T/C [36] was 0.79%.

`COc1ncnc(C2CC2)c1-c1ncc2cnn(Cc3ccc(-c4nc(C(F)(F)F)cn4C(C)C)cc3)c2n1` + Cc1cnc(CNC(=O)c2c(=O)c3ccc(N4CCCN(C)CC4)nc3n3c2sc2ccccc23)cn1 gave an IC50 (second compound 0.0316 µM) greater than 10000 nM, an IC50 (second compound 0.1 µM) greater than 10000 nM and an IC50 (second compound 0.316 µM) greater than 10000 nM. It also gave an IC50 (second compound 1 µM) greater than 10000 nM, an IC50 (second compound 3.16 µM) greater than 10000 nM and an IC50 (second compound 10 µM) greater than 10000 nM. The viability, T/C [1] was 86.6%, the viability, T/C [2] was 79.2% and the viability, T/C [3] was 84.4%. The viability, T/C [4] was 74.3%, the viability, T/C [5] was 91.5% and the viability, T/C [6] was 93.6%. It also gave a viability, T/C [7] of 99.4%, a viability, T/C [8] of 74.7% and a viability, T/C [9] of 82.9%. It also gave a viability, T/C [10] of 88.8%, a viability, T/C [11] of 101% and a viability, T/C [12] of 86.5%. For the same compound, the viability, T/C [13] was 84.4%, the viability, T/C [14] was 72.4% and the viability, T/C [15] was 78.8%. It also gave a viability, T/C [16] of 80.4%, a viability, T/C [17] of 93.2% and a viability, T/C [18] of 94%. For the same compound, the viability, T/C [19] was 63%, the viability, T/C [20] was 80.1% and the viability, T/C [21] was 84.3%. The viability, T/C [22] was 85.4%, the viability, T/C [23] was 82.3% and the viability, T/C [24] was 98.8%. For the same compound, the viability, T/C [25] was 71.8%, the viability, T/C [26] was 80.4% and the viability, T/C [27] was 82.7%. It also gave a viability, T/C [28] of 71.9%, a viability, T/C [29] of 98.1% and a viability, T/C [30] of 98%. The viability, T/C [31] was 70.3%, the viability, T/C [32] was 80.7% and the viability, T/C [33] was 88.6%. The viability, T/C [34] was 72.8%, the viability, T/C [35] was 84.7% and the viability, T/C [36] was 88.2%.

Compound `Cc1[nH]c2ccccc2c1CCNCc1ccc(/C=C/C(=O)NO)cc1` + Cc1cnc(CNC(=O)c2c(=O)c3ccc(N4CCCN(C)CC4)nc3n3c2sc2ccccc23)cn1 has an IC50 (second compound 0.0316 µM) greater than 316 nM, an IC50 (second compound 0.1 µM) of 277 nM and an IC50 (second compound 0.316 µM) greater than 316 nM. For the same compound, the IC50 (second compound 1 µM) was greater than 316 nM, the IC50 (second compound 3.16 µM) was 269 nM and the IC50 (second compound 10 µM) was 227 nM. The viability, T/C (second compound 0.0316 µM, first compound 0.000999 µM) was 99.8%, the viability, T/C (second compound 0.0316 µM, first compound 0.00316 µM) was 94.7% and the viability, T/C (second compound 0.0316 µM, first compound 0.00999 µM) was 83.5%. It also gave a viability, T/C [1] of 65.8%, a viability, T/C (second compound 0.0316 µM, first compound 0.0999 µM) of 77.8% and a viability, T/C [3] of 46.8%. It also gave a viability, T/C (second compound 0.1 µM, first compound 0.000999 µM) of 91.6%, a viability, T/C (second compound 0.1 µM, first compound 0.00316 µM) of 86.7% and a viability, T/C (second compound 0.1 µM, first compound 0.00999 µM) of 83.4%. For the same compound, the viability, T/C [7] was 66.6%, the viability, T/C (second compound 0.1 µM, first compound 0.0999 µM) was 68% and the viability, T/C [9] was 46.6%. The viability, T/C (second compound 0.316 µM, first compound 0.000999 µM) was 79.5%, the viability, T/C (second compound 0.316 µM, first compound 0.00316 µM) was 73.9% and the viability, T/C (second compound 0.316 µM, first compound 0.00999 µM) was 80.3%. It also gave a viability, T/C [13] of 78.8%, a viability, T/C (second compound 0.316 µM, first compound 0.0999 µM) of 67.4% and a viability, T/C [15] of 55.9%. It also gave a viability, T/C (second compound 1 µM, first compound 0.000999 µM) of 75.2%, a viability, T/C (second compound 1 µM, first compound 0.00316 µM) of 72.6% and a viability, T/C (second compound 1 µM, first compound 0.00999 µM) of 74.3%. The viability, T/C [19] was 62.6%, the viability, T/C (second compound 1 µM, first compound 0.0999 µM) was 70.4% and the viability, T/C [21] was 63.7%. It also gave a viability, T/C (second compound 3.16 µM, first compound 0.000999 µM) of 73.8%, a viability, T/C (second compound 3.16 µM, first compound 0.00316 µM) of 78.6% and a viability, T/C (second compound 3.16 µM, first compound 0.00999 µM) of 87.4%. The viability, T/C [25] was 78.8%, the viability, T/C (second compound 3.16 µM, first compound 0.0999 µM) was 76.1% and the viability, T/C [27] was 45.8%. For the same compound, the viability, T/C (second compound 10 µM, first compound 0.000999 µM) was 75.2%, the viability, T/C (second compound 10 µM, first compound 0.00316 µM) was 67.8% and the viability, T/C (second compound 10 µM, first compound 0.00999 µM) was 68.7%. For the same compound, the viability, T/C [31] was 84.5%, the viability, T/C (second compound 10 µM, first compound 0.0999 µM) was 70.3% and the viability, T/C [33] was 41.4%.
